According to PMC3919114, “Induction of Apoptosis of 2,4′,6-Trihydroxybenzophenone in HT-29 Colon Carcinoma Cell Line” (BioMed Research International, 2014):
Like-named read-outs stand apart in the source and are kept apart here. Blank lines part the entries; values can stand above or below the compound they belong to.

Legend:
HT-29 cells [1] = test: Cell cycle analysis by flow cytometry (PI staining); format: cell-based, human; details: IC50 value of 115 μM
Method: After incubation, the cells were collected by trypsinization, fixed in ethanol, washed in warm PBS, and incubated at −20°C, overnight. Next, the cells were washed with 1 mL of cold PBS and stained with propidium iodide according to the Cycle TEST PLUS DNA Reagent Kit (Becton Dickinson, USA) protocol. The cells were sorted in a FACScalibur flow cytometer (BD, USA) using CellQuest Pro software (Becton Dickinson, USA) and a quantitative analysis of the cell cycle distribution was performed using a trial version of the ModFit LT software, version 4.0.
The HT-29 cells were treated with isolated bioactive 2,4′,6-trihydroxy-4-methoxybenzophenone for 24 h, 48 h, and 72 h. Treated and untreated cells were harvested with accutase and phosphate buffer saline, centrifuged, and stained with propidium iodide. The HT-29 cells were then analyzed by flow cytometry using CellQuest Pro software and their distribution in different phases of the cell cycle is shown in Figure 6(a). The resulting data were tabulated using the trial version of the ModFit L.V 4.0 software to represent a percentage of each cell cycle phase (G0/G1, S, and G2/M), as shown in Figure 6(b).

PUMA = test: Western blot analysis, PUMA expression in HT-29 cells; format: cell-based, human; details: IC50 concentration (115 μM), 24 h, 48 h and 72 h
Method: (§1) The HT-29 cells were cultured in […] tissue culture flasks and incubated at 37°C under 5% CO2 until confluent. […] After incubation at the various times, the cells were detached with accutase in PBS, washed thoroughly with PBS twice, and were then lysed with protein lysis buffer (Sigma, USA) containingprotease inhibitors and shaken by hand for 15 min at room temperature. The lysates were then centrifuged at 13,000 ×g for 20 min at 4°C and the supernatant was collected for protein samples and kept at […] until SDS page analysis. Protein concentration was determined using a BCA (bicinchoninic acid) protein assay kit (Invitrogen, USA) with bovine serum albumin as the standard.
(§2) The proteins were transferred into polyvinylidene difluoride (PVDF) membranes by semidry transfer. Bands were visualized using the Western Max Horseradish Peroxidase Chromogenic Detection Kit protocol (AMRESCO, USA). Briefly, the membranes were blocked in a blocking buffer for 30 min at room temperature. Primary antibodies for Bcl-2, Bcl-xL, PUMA, Mcl-1, Bak, Bad, and Bax were then added. The membranes were incubated with gentle agitation at room temperature overnight. After incubation, the membranes were washed with washing buffer two times and then incubated with Western Max HRP Conjugated Anti-Rabbit Antibody for 45 min at room temperature with gentle agitation. […]

[2] = test system: HT-29 human colon carcinoma cell line; test: MTT cell proliferation assay, HT-29; format: cell-based; details: read-out: IC50 against HT-29 cells
Method: (§3) The HT-29 human colon carcinoma cell line, WRL-68 normal liver cells, and MRC-5 normal lung fibroblast […] cells were purchased from the American Type Culture Collection (ATCC, USA). The cells were placed into tissue culture flasks and grown in a medium containing 10% fetal bovine serum, 100 μg/mL of penicillin/streptomycin, and 100 μg/mL of amphotericin B at 37°C in a humidified atmosphere containing 5% CO2.
(§4) The MTT […]) cell proliferation assay was based on the protocol described by Mosmann. Briefly, cells from a confluent tissue culture flask were spun at 1,000 rpm for five minutes and resuspended in 1.0 mL of growth medium. Cells were then seeded into 96 well plates and incubated in a CO2 incubator at 37°C for 24 hours to allow the cells to adhere and achieve 70%–80% confluence. After 24 hours, the media was removed and the test compound, at varying concentrations of 4, 38, 96, 192, and 384 μM with 200 μL of 10% medium, was added to the respective wells. For negative control, untreated cells were used. After 24 h, 48 h, and 72 h of incubation, respectively, each well had 10 μL of the MTT stock solution added to the test sample and was then incubated in a dark place for three hours. The medium with the MTT solution was removed and 200 μL of absolute DMSO was added to each well in order to solubilise the formazan crystals that had formed. The total amount of formazan crystals was examined by measuring the absorbance at 540 nm using an ELISA plate reader. The assay was carried out in triplicate.
(§5) The percentage of inhibition (%) was calculated using the following formula: (1) percentage of inhibition (%) =OD control−OD sample×100% /OD control, where OD = optical densities.
(§6) The IC50 value is the concentration of test compounds which cause 50% inhibition or cell death, average from three experiments, and was obtained by plotting the percentage of inhibition versus the concentration of test compounds [13].

Bcl-2 = test: Western blot analysis, Bcl-2 expression in HT-29 cells; format: cell-based, human; details: IC50 concentration (115 μM), 72 h treatment only
Method: as §1, §2

Bak = test: Western blot analysis, Bak expression in HT-29 cells; format: cell-based, human; details: IC50 concentration (115 μM), 72 h treatment only
Method: as §1, §2

Mcl-1 = test: Western blot analysis, Mcl-1 expression in HT-29 cells; format: cell-based, human; details: IC50 concentration (115 μM), 24 h, 48 h and 72 h
Method: as §1, §2

HT-29 cells [3] = test: Morphological detection of apoptosis (inverted and phase-contrast microscopy); format: cell-based, human; details: IC50 concentrations (115 μM), 24 h, 48 h, 72 h
Method: HT-29 cells were placed in a Petri dish (30 mm) at a density of 1 × 10^5 cells/well plate and grown for 24 h. […] After the various incubation periods, morphological changes in the apoptotic bodies of the HT-29 cells were examined by inverted and phase-contrast microscopy (Leica, Germany) and photographed.

[4] = set-up: method as in earlier work; details: from ethyl acetate extract of the leaves; cited from earlier work
[5] = test system: human normal fibroblast lung cells (MRC-5); test: MTT cell proliferation assay, MRC-5; format: cell-based
Method: as §3, §4, §5, §6

[6] = test system: human normal liver cells (WRL-68); test: MTT cell proliferation assay, WRL-68; format: cell-based
Method: as §3, §4, §5, §6

[7] = test system: breast cancer cell line (MDA-MB231); details: cited from earlier work
[8] = Annexin V-FITC/PI staining assay by flow cytometry; format: cell-based, human; details: human, HT-29 cells, 24 h, read-out: viable cells (LL)
Method: (§7) The quantification of cell death was determined by flow cytometry using the Annexin V-FITC apoptosis detection kit according to the manufacturer's instructions (BD Pharmingen, BD Bioscience, USA). Briefly, 1 × 10^6 of the HT-29 cells were seeded into each Petri dish (30 mm) and after a 24 h incubation, various concentrations of the test compound were added and incubated for 24 h, 48 h, and 72 h, respectively. The cells were then washed with PBS, suspended in annexin V binding buffer and then added to an annexin V-FITC solution and propidium iodide (PI) for 10 minutes at room temperature. The samples were then analyzed using FACScalibur (BD Bioscience, USA) using CellQuest Pro analysis software (Becton Dickinson, USA).
(§8) Cells were treated with various concentrations (96 μM, 192 μM, and 288 μM) of the compound for 24 h, 48 h, and 72 h, respectively. They were then harvested with accutase and phosphate buffer saline and centrifuged, after which they were stained with Annexin V-FITC and propidium iodide and analyzed in FACScalibur with CellQuest Pro software. The number of early apoptotic cells, late apoptotic cells, live cells, and necrotic cells was counted in every 10,000 cells of each treatment. All data was expressed as the mean ± SD (standard deviation). The standard deviation was calculated for the treated and untreated cells. The SPSS program (version 16.0) found a significant difference between the treated and untreated cells ([…]).

HT-29 cells [9] = test: Annexin V-FITC/PI staining assay by flow cytometry; format: cell-based, human
Method: as §7, §8

[10] = test system: human esophageal cancer cells (TE-2); details: cited from earlier work

IC50 ([2]; 24 h): 172 ± 2.21 µM
IC50 ([2]; 48 h): 144 ± 2.66 µM
IC50 ([2]; 72 h): 122 ± 1.69 µM
SMILES: COc1cc(O)c(C(=O)c2ccc(O)cc2)c(O)c1 [2,4′,6-trihydroxy-4-methoxybenzophenone]
cell percentage in the G2/M phase (HT-29 cells [1]; 24 h): 13.61%
cell percentage in the S phase (HT-29 cells [1]; 24 h): 15.70%
percentage of diploid cells in the G0/G1 phase (HT-29 cells [1]; 24 h): 70.69%
effect on cell cycle (HT-29 cells [1]; 24 h, 48 h, 72 h, time-dependent): cell cycle arrest in the G0/G1 phase
cell percentage in the G2/M phase (HT-29 cells [1]; 48 h): 3.17%
cell percentage in the S phase (HT-29 cells [1]; 48 h): 16.85%
percentage of diploid cells in the G0/G1 phase (HT-29 cells [1]; 48 h): 79.98%
cell percentage in the G2/M phase (HT-29 cells [1]; 72 h): 3.20%
cell percentage in the S phase (HT-29 cells [1]; 72 h): 8.60%
percentage of diploid cells in the G0/G1 phase (HT-29 cells [1]; 72 h): 88.21%
expression of PUMA (PUMA): significantly upregulated
expression of Bcl-2 (Bcl-2): only up-regulated for 72 h treatment
expression of Bak (Bak): only up-regulated for 72 h treatment
expression of Mcl-1 (Mcl-1): significantly upregulated
morphological changes associated to apoptosis (HT-29 cells [3]): membrane blebbing, cell shrinkage, chromatin condensation, apoptotic nuclei, and DNA fragmentation
antioxidant activity [4]: good antioxidant activity
IC50 ([5]; MRC5, 24 h): ≥ 384 µM
IC50 ([5]; MRC5, 48 h): 269 ± 0.96 µM
IC50 ([5]; MRC5, 72 h): 356 ± 1.21 µM
IC50 ([6]; WRL68, 24 h): ≥ 384 µM
IC50 ([6]; WRL68, 48 h): 331 ± 0.69 µM
IC50 ([6]; WRL68, 72 h): 235 ± 1.03 µM
antiproliferation activity against MDA-MB231 [7]: displayed antiproliferation activity
viability at 24 h, 96 µM ([8]; 96 μM): 69.3%
viability at 24 h, 192 µM ([8]; 192 μM): 35.2%
viability at 24 h, 288 µM ([8]; 288 μM): 23.8%
early apoptotic cells (LR) (HT-29 cells [9]; 96 μM, 24 h): 2.96%
late apoptotic cells (UR) (HT-29 cells [9]; 96 μM, 24 h): 12.28%
primary necrotic cells (UL) (HT-29 cells [9]; 96 μM, 24 h): 15.49%
early apoptotic cells (LR) (HT-29 cells [9]; 96 μM, 48 h): 10.87%
late apoptotic cells (UR) (HT-29 cells [9]; 96 μM, 48 h): 31.48%
primary necrotic cells (UL) (HT-29 cells [9]; 96 μM, 48 h): 8.04%
early apoptotic cells (LR) (HT-29 cells [9]; 96 μM, 72 h): 1.33%
late apoptotic or secondary necrotic cells (UR) (HT-29 cells [9]; 96 μM, 72 h): 15.77%
live cells (LL) (HT-29 cells [9]; 96 μM, 72 h): 52.21%
primary necrotic cells (UL) (HT-29 cells [9]; 96 μM, 72 h): 30.69%
early apoptotic cells (LR) (HT-29 cells [9]; 192 μM, 24 h): 8.46%
late apoptotic cells (UR) (HT-29 cells [9]; 192 μM, 24 h): 25.98%
primary necrotic cells (UL) (HT-29 cells [9]; 192 μM, 24 h): 30.40%
early apoptotic cells (LR) (HT-29 cells [9]; 192 μM, 48 h): 4.74%
live cells (LL) (HT-29 cells [9]; 192 μM, 48 h): 34.22%
primary necrotic cells (UL) (HT-29 cells [9]; 192 μM, 48 h): 35.05%
early apoptotic cells (LR) (HT-29 cells [9]; 192 μM, 72 h): 14.34%
late apoptotic or secondary necrotic cells (UR) (HT-29 cells [9]; 192 μM, 72 h): 58.97%
live cells (LL) (HT-29 cells [9]; 192 μM, 72 h): 12.73%
primary necrotic cells (UL) (HT-29 cells [9]; 192 μM, 72 h): 13.96%
early apoptotic cells (LR) (HT-29 cells [9]; 288 μM, 24 h): 6.71%
late apoptotic cells (UR) (HT-29 cells [9]; 288 μM, 24 h): 50.81%
primary necrotic cells (UL) (HT-29 cells [9]; 288 μM, 24 h): 19.63%
early apoptotic cells (LR) (HT-29 cells [9]; 288 μM, 48 h): 8.51%
late apoptotic cells (UR) (HT-29 cells [9]; 288 μM, 48 h): 54.67%
live cells (LL) (HT-29 cells [9]; 288 μM, 48 h): 26.80%
primary necrotic cells (UL) (HT-29 cells [9]; 288 μM, 48 h): 10.02%
early apoptotic cells (LR) (HT-29 cells [9]; 288 μM, 72 h): 0.28%
late apoptotic or secondary necrotic cells (UR) (HT-29 cells [9]; 288 μM, 72 h): 8.45%
live cells (LL) (HT-29 cells [9]; 288 μM, 72 h): 54.64%
primary necrotic cells (UL) (HT-29 cells [9]; 288 μM, 72 h): 36.63%

SMILES: COc1cc(O)c(C(=O)c2ccc(O)cc2)c(O[C@@H]2O[C@H](CO)[C@@H](O)[C@H](O)[C@H]2O)c1 [4′,6-dihydroxy-4-methoxybenzophenone 2-o-β-D-glucopyranoside]
antiproliferation activity against MDA-MB231 [7]: displayed antiproliferation activity

SMILES: O=C(O)c1cc(O)c(O)c(O)c1 [Gallic acid]
anticancer properties against TE-2 cells [10]: possess anticancer properties
